The text below walks through data of paper PMC10804683, “Identification of the pyridoxal 5′‐phosphate allosteric site in human pyridox(am)ine 5′‐phosphate oxidase” (Protein Science : A Publication of the Protein Society, 2024).

Molecules are shown by their SMILES. Positions count from the first letter of the chain named. Entries after “also recorded” stand apart in the source; their conditions may differ.

In assay [1] the target is T1, human PNPO wild type (Homo sapiens, UniProt Q9NVS9).
T1 sequence (Q9NVS9 1-261): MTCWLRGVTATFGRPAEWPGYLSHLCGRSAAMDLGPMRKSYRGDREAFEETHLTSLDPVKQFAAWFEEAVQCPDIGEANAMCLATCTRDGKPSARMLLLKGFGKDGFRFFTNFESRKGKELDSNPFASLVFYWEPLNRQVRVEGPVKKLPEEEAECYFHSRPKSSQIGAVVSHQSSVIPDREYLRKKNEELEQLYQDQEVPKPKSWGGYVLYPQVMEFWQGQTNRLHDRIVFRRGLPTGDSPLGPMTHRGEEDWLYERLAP
Also on record: a main form corresponding to the entire protein; made in house; host or cells: E. coli BL21(DE3); method as in Barile et al. ([2020]). The settings on record: DSF, ref Barile et al. ([2020]), read-out: PLP binding KD^DSF; cited from earlier work.

Assay [2] addresses T2, human PNPO F48A/E50L/R258L variant (holo-enzyme) (Homo sapiens, UniProt Q9NVS9, E50L/F48A/R258L).
T2 construct: a main form corresponding to the entire protein; made in house; host or cells: E. coli BL21(DE3)
T2 sequence (Q9NVS9 1-261 F48A/E50L/R258L): T1 sequence (Q9NVS9 1-261) with F48A, E50L, R258L
In words: PLP binding by FMN fluorescence changes, holo triple variant. The settings on record: 100 nM enzyme, read-out: PLP binding KD^FLUO. The source says: (§1) PLP binding to PNPO can be detected and quantitatively measured using differential scanning fluorimetry (DSF) and also by measuring FMN fluorescence changes. We had previously attributed DSF changes to PLP binding at the active site, while FMN fluorescence changes were attributed to PLP binding at the allosteric site (Barile et al., [2019], [2020]). Previous experiments carried out with the PNPO R161C variant, affecting a residue that is essential for substrate binding and catalysis (and therefore also for PLP binding at the active site), confirms that DSF measurements only report PLP binding at the active site (Barile et al., [2021]; Table 1). […] We expected to observe no FMN fluorescence changes upon titration of the variants with PLP. However, this was not the case, and the dissociation constant values obtained by observing the FMN fluorescence emission were only up to threefold larger in the variants with respect to wild type PNPO (Figure 3). […] To check the second possibility, we measured intrinsic fluorescence changes of wild type and variant apo‐forms (i.e., without FMN) upon PLP titration. […]
(§2) Analyses of PLP binding, based on FMN fluorescence increase observed upon binding of PLP to PNPO, were performed as described in Barile et al. ([2020]). […] Emission spectra were recorded from […], with excitation and emission slits set at 3 and 5 nm, respectively. […]

The target of assay [3] is T3, apo-PNPO F48A/E50L/R161C/R258L (Homo sapiens, UniProt Q9NVS9, E50L/F48A/R161C/R258L).
T3 construct: together with a main form corresponding to the entire protein (estimated molecular mass of 31.0 ± 0.7 kDa); made in house; host or cells: E. coli BL21(DE3)
T3 sequence (Q9NVS9 1-261 F48A/E50L/R161C/R258L): T1 sequence (Q9NVS9 1-261) with F48A, E50L, R161C, R258L
Put plainly: PLP binding by intrinsic fluorescence, apo F48A/E50L/R161C/R258L. The settings on record: excitation 280 nm, 100 nM enzyme.
Excerpt: as §1, §2

Assay [4] deals with T4, human PNPO F48A/E50L/H248N/R258L variant (holo-enzyme) (Homo sapiens, UniProt Q9NVS9, E50L/F48A/H248N/R258L).
T4 construct: a main form corresponding to the entire protein; made in house; host or cells: E. coli BL21(DE3)
T4 sequence (Q9NVS9 1-261 F48A/E50L/H248N/R258L): T1 sequence (Q9NVS9 1-261) with F48A, E50L, H248N, R258L
Put plainly: PLP binding by FMN fluorescence changes, holo quadruple variant. The settings on record: 100 nM enzyme, read-out: PLP binding KD^FLUO.
Excerpt: as §1, §2

As a reminder, the Kd is the equilibrium constant for the complex coming apart. In the case of `Cc1ncc(COP(=O)(O)O)c(C=O)c1O` [PLP, pyridoxal 5′‐phosphate], the dissociation constant (Kd) in assay [1] was 3200 ± 200 nM; in assay [2], 1380 ± 80 nM; in assay [4], 2850 ± 250 nM. Also, the “Apo-enzyme PLP binding KD^FLUO” value in assay [3] is on record as “no variation in the emitted fluorescence was observed; also recorded: No binding”.
